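GI50 marks 50% less growth. At the TGI there is no net growth.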
What was measured:
Assay in all cases: growth of human tumour cells (NCI), 384-well format
SN12C renal = system: SN12C renal
DU-145 prostate = system: DU-145 prostate
RPMI-8226 leukemia = system: RPMI-8226 leukemia
UACC-257 melanoma = system: UACC-257 melanoma
UO-31 renal = system: UO-31 renal
OVCAR-4 ovarian = system: OVCAR-4 ovarian
MDA-MB-435 melanoma = system: MDA-MB-435 melanoma
UACC-62 melanoma = system: UACC-62 melanoma
KM12 colon = system: KM12 colon
A549 NSCLC = system: A549 NSCLC
NCI/ADR-RES ovarian = system: NCI/ADR-RES ovarian
HOP-92 NSCLC = system: HOP-92 NSCLC
SNB-19 CNS = system: SNB-19 CNS

## Nc1nc(OCc2cc(Br)cs2)c2[nH]cnc2n1
SN12C renal
  GI50: 29 µM
  TGI: > 100 µM
DU-145 prostate
  GI50: 44.7 µM
  TGI: > 100 µM
RPMI-8226 leukemia
  GI50: 20.4 µM
  TGI: 40.4 µM
UACC-257 melanoma
  GI50: 51.7 µM
  TGI: > 100 µM
UO-31 renal
  GI50: 4.73 µM
  TGI: > 100 µM
OVCAR-4 ovarian
  GI50: > 78.7 µM
  TGI: > 100 µM
MDA-MB-435 melanoma
  GI50: 43.1 µM
  TGI: > 100 µM
UACC-62 melanoma
  GI50: 31.2 µM
  TGI: > 100 µM
KM12 colon
  GI50: 87.2 µM
  TGI: > 100 µM
A549 NSCLC
  GI50: 42.6 µM
  TGI: > 100 µM
NCI/ADR-RES ovarian
  GI50: 53.7 µM
  TGI: > 100 µM
HOP-92 NSCLC
  GI50: 40.8 µM
  TGI: > 100 µM
SNB-19 CNS
  GI50: 70 µM
  TGI: > 100 µM
